{"source": "PubChem BioAssay AID1963826", "about": "(Molecular Pharmacology Branch, DTP, NCI, 2024);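 note: spheroids exposed to drugs for one week before readout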;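 for viability, T/C: percent viability relative to DMSO vehicle control wells set as 100%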", "system": "926638-142-R-J1-PDC complex spheroid viability", "assay": "Anticancer human tumor 926638-142-R-J1-PDC patient-derived endometrial carcinoma cell line growth inhibition [POLQ]", "conditions": "for IC50: curve of first compound; for viability, T/C: stronger effect = lower value", "protocol": "Multicellular complex tumor spheroid response to Polymerase (POL) inhibitors (novobiocin, ART-558, RP6685) in combination with a variety of drugs and investigational agents in selected tumor cell lines\nThe POL inhibitors (novobiocin, ART-558, and RP6685) were evaluated both individually and in combination with standard of care and investigational anticancer small molecules within a complex spheroid model of solid tumors. . Complex spheroids include a stromal component modeled by human endothelial cells (HUVEC) and fibroblasts modeled by human mesenchymal stem cells (MSCs). The concentration ranges selected for each drug and investigational agent were based upon clinically achievable concentrations if the clinical Cmax of the agent was known.\nCompounds. The drugs and investigational agents: novobiocin (NSC847541), ART-558 (NSC835418), RP-6685 (NSC848927), peposertib (NSC802822), ceralasertib (NSC780249), elimusertib (NSC800525), camonsertib (NSC841442), AZD-1390 (NSC803789), olaparib (NSC753686), talazoparib (NSC767125), rucaparib (NSC756644), sotorasib (NSC818433), MRTX-1133 (NSC836407), SN-38 (NSC673596), topotecan (NSC609699), epotoside (NSC141540), doxorubicin (NSC123127), gemcitabine (NSC613327), 5-fluorouracil (NSC19893), paclitaxel (NSC125973), vemurafenib (NSC761431), MSA-2 (NSC828583), SN-011 (NSC837082), adavosertib (NSC754352), prexasertib (NSC758257), carboplatin (NSC241240) and oxaliplatin (NSC266046), were obtained from the National Cancer Institute (NCI) Developmental Therapeutics Program Chemical Repository (21). The FDA-approved anticancer drug set is available from the Developmental Therapeutics Program at https://dtp.cancer.gov/organization/dscb/obtaining/. […] The stock solutions were prepared in dimethyl sulfoxide (DMSO, Sigma-Aldrich, St. Louis, MO, cat. D2650), except for the platinum compounds which were prepared in saline (Quality Biological, Gaithersburg, MD, cat. 114-055-101), at 800-fold the tested concentration and stored at -70 degrees C prior to their use. All drugs and investigational agents were tested over a range starting from a high concentration at or near the clinical Cmax and decreasing in half-log increments. If the clinical Cmax for an agent had not been determined, the highest concentration tested was 10 microM, except for SN-38, which was tested at a high concentration of 1 microM.\nCell Culture. All cells were maintained in an incubator at 37 degrees C and 5% CO2 with 95% humidity. The PDC lines were cultured according to standard operating procedures established by the NCI PDMR (https://pdmr.cancer.gov). Table 3 of the manuscript, lists the cell lines along with the number of the three cell types plated to form the mct-spheroids and media for tumor cell growth. After thawing, all PDC lines, except 997537-175-T-J1-PDC and 415267-285-R-J2-PDC, were cultured in Matrigel-coated flasks prepared with a working solution of 1X Ham's F-12 nutrient mix, without supplementation (Thermo Fisher Scientific, cat. 11765054), 100 U/mL penicillin-streptomycin (Thermo Fisher Scientific, cat. 15140122), and 2.5% Matrigel (Corning Inc., Corning, NY, cat. 354248) for the first three passages. The two PDC lines 997537-175-T-J1-PDC and 415267-285-R-J2-PDC were cultured on uncoated flasks. The 857933-349-R-J2-PDC line was cultured in 6C/Colon 1B media containing advanced DMEM/F-12 (Thermo Fisher Scientific, cat. 12634028), 10 mM HEPES (Thermo Fisher Scientific, cat. 15630080), 1X GlutaMAX supplement (Thermo Fisher Scientific, cat. 35050061), 0.1 mg/mL primocin (InvivoGen, San Diego, CA, cat. ant-pm-2), 10% defined fetal bovine serum, heat inactivated (HyClone Laboratories Inc., Logan, UT, cat. SH30070.03HI), 50% L-WRN conditioned media (ATCC, cat. CRL-3276), 1.25 mM N-Acetyl-L-cysteine (Sigma-Aldrich, cat. A9165), 10 mM nicotinamide (Sigma-Aldrich, cat. N0636), 1X B-27 supplement (Thermo Fisher Scientific, cat. 17504044), 1X N-2 supplement (Thermo Fisher Scientific, cat. […]"}
{"smiles": "CC(=O)O[C@H]1C(=O)[C@@]2(C)[C@H]([C@H](OC(=O)c3ccccc3)[C@]3(O)C[C@H](OC(=O)[C@H](O)[C@@H](NC(=O)c4ccccc4)c4ccccc4)C(C)=C1C3(C)C)[C@]1(OC(C)=O)CO[C@@H]1C[C@@H]2O", "note": "+ COC1C(OC(N)=O)C(O)C(Oc2ccc3c(O)c(NC(=O)c4ccc(O)c(CC=C(C)C)c4)c(=O)oc3c2C)OC1(C)C", "values": [{"measurement": "IC50", "setting": "second compound 0.0316 µM", "value": "> 3", "unit": "µM"}, {"measurement": "IC50", "setting": "second compound 0.1 µM", "value": "> 3", "unit": "µM"}, {"measurement": "IC50", "setting": "second compound 0.316 µM", "value": "> 3", "unit": "µM"}, {"measurement": "IC50", "setting": "second compound 1 µM", "value": "> 3", "unit": "µM"}, {"measurement": "IC50", "setting": "second compound 3.16 µM", "value": "> 3", "unit": "µM"}, {"measurement": "IC50", "setting": "second compound 10 µM", "value": "> 3", "unit": "µM"}, {"measurement": "viability, T/C", "setting": "second compound 0.0316 µM, first compound 0.00949 µM", "value": 94.1, "unit": "%"}, {"measurement": "viability, T/C", "setting": "second compound 0.0316 µM, first compound 0.03 µM", "value": 76.3, "unit": "%"}, {"measurement": "viability, T/C", "setting": "second compound 0.0316 µM, first compound 0.0949 µM", "value": 65.2, "unit": "%"}, {"measurement": "viability, T/C", "setting": "second compound 0.0316 µM, first compound 0.3 µM", "value": 58, "unit": "%"}, {"measurement": "viability, T/C", "setting": "second compound 0.0316 µM, first compound 0.949 µM", "value": 62.3, "unit": "%"}, {"measurement": "viability, T/C", "setting": "second compound 0.0316 µM, first compound 3 µM", "value": 51.4, "unit": "%"}, {"measurement": "viability, T/C", "setting": "second compound 0.1 µM, first compound 0.00949 µM", "value": 89.5, "unit": "%"}, {"measurement": "viability, T/C", "setting": "second compound 0.1 µM, first compound 0.03 µM", "value": 80.9, "unit": "%"}, {"measurement": "viability, T/C", "setting": "second compound 0.1 µM, first compound 0.0949 µM", "value": 62.8, "unit": "%"}, {"measurement": "viability, T/C", "setting": "second compound 0.1 µM, first compound 0.3 µM", "value": 49.9, "unit": "%"}, {"measurement": "viability, T/C", "setting": "second compound 0.1 µM, first compound 0.949 µM", "value": 60.1, "unit": "%"}, {"measurement": "viability, T/C", "setting": "second compound 0.1 µM, first compound 3 µM", "value": 59, "unit": "%"}, {"measurement": "viability, T/C", "setting": "second compound 0.316 µM, first compound 0.00949 µM", "value": 75.5, "unit": "%"}, {"measurement": "viability, T/C", "setting": "second compound 0.316 µM, first compound 0.03 µM", "value": 74.7, "unit": "%"}, {"measurement": "viability, T/C", "setting": "second compound 0.316 µM, first compound 0.0949 µM", "value": 63.6, "unit": "%"}, {"measurement": "viability, T/C", "setting": "second compound 0.316 µM, first compound 0.3 µM", "value": 58.2, "unit": "%"}, {"measurement": "viability, T/C", "setting": "second compound 0.316 µM, first compound 0.949 µM", "value": 48.4, "unit": "%"}, {"measurement": "viability, T/C", "setting": "second compound 0.316 µM, first compound 3 µM", "value": 63.4, "unit": "%"}, {"measurement": "viability, T/C", "setting": "second compound 1 µM, first compound 0.00949 µM", "value": 81.4, "unit": "%"}, {"measurement": "viability, T/C", "setting": "second compound 1 µM, first compound 0.03 µM", "value": 70, "unit": "%"}, {"measurement": "viability, T/C", "setting": "second compound 1 µM, first compound 0.0949 µM", "value": 55.9, "unit": "%"}, {"measurement": "viability, T/C", "setting": "second compound 1 µM, first compound 0.3 µM", "value": 53.1, "unit": "%"}, {"measurement": "viability, T/C", "setting": "second compound 1 µM, first compound 0.949 µM", "value": 62, "unit": "%"}, {"measurement": "viability, T/C", "setting": "second compound 1 µM, first compound 3 µM", "value": 51.8, "unit": "%"}, {"measurement": "viability, T/C", "setting": "second compound 3.16 µM, first compound 0.00949 µM", "value": 86.5, "unit": "%"}, {"measurement": "viability, T/C", "setting": "second compound 3.16 µM, first compound 0.03 µM", "value": 72.2, "unit": "%"}, {"measurement": "viability, T/C", "setting": "second compound 3.16 µM, first compound 0.0949 µM", "value": 67, "unit": "%"}, {"measurement": "viability, T/C", "setting": "second compound 3.16 µM, first compound 0.3 µM", "value": 57.6, "unit": "%"}, {"measurement": "viability, T/C", "setting": "second compound 3.16 µM, first compound 0.949 µM", "value": 67, "unit": "%"}, {"measurement": "viability, T/C", "setting": "second compound 3.16 µM, first compound 3 µM", "value": 54.7, "unit": "%"}, {"measurement": "viability, T/C", "setting": "second compound 10 µM, first compound 0.00949 µM", "value": 94.6, "unit": "%"}, {"measurement": "viability, T/C", "setting": "second compound 10 µM, first compound 0.03 µM", "value": 73.4, "unit": "%"}, {"measurement": "viability, T/C", "setting": "second compound 10 µM, first compound 0.0949 µM", "value": 64.9, "unit": "%"}, {"measurement": "viability, T/C", "setting": "second compound 10 µM, first compound 0.3 µM", "value": 52.1, "unit": "%"}, {"measurement": "viability, T/C", "setting": "second compound 10 µM, first compound 0.949 µM", "value": 51.8, "unit": "%"}, {"measurement": "viability, T/C", "setting": "second compound 10 µM, first compound 3 µM", "value": 60.4, "unit": "%"}]}
